Laboratory results reported in patent publication US20260125366A1, “METHODS FOR TREATING CANCER” (SCORPION THERAPEUTICS, INC., priority 2022, published 2026).
pIC50: −log10 of the molar value.

Each molecule was assayed against PI3Kα H1047R (Homo sapiens, UniProt P42336, H1047R) (assay: ADP-Glo assay). Conditions: 2 nM H1047R enzyme; 1 hour incubation with compound at room temperature; ATPase reaction 100 min.
Format: biochemical
Protocol: Compounds were plated using acoustic liquid dispensing on the Echo 655T by transferring 50 nL/well compound DMSO solution from an Echo source plate to a 384-well assay plate to generate a 10-point dose response curve with a top final concentration of […], 1:3 serial dilution down; the same volume of DMSO was dispensed to wells designated as positive and negative controls. On the day of the assay, a 2X enzyme solution in the assay buffer (50 mM Tris, 150 mM NaCl, 0.01% Brij35, 15 mM MgCl2, 0.05% Tween-20, and 1 mM DTT) was prepared. The enzyme concentrations used were: 20 nM for wild-type, 2 nM for H1047R and H1047L, and 10 nM for H1047Y proteins. 2.5 µL/well of 2X enzyme solution was dispensed into the assay plates and the enzyme was incubated with the test compound at room temperature for 1 hour; the same volume of assay buffer without enzyme was dispensed to wells designated as positive controls. At the end of the incubation, 2.5 µL/well of 2X ATP solution in assay buffer was dispensed to initiate the ATPase reaction and incubated at room temperature for 100 min. Reactions were terminated and ADP production measured using the ADP-Glo kit following instructions from the manufacturer.
The IC50(nM) ranges are as follows: A denotes <200 nM; B denotes 200 nM≤IC50<500 nM; C denotes ≥500 nM. ND denotes value not determined with that assay for the specified compound.

Chain of PI3Kα H1047R (P42336 whole entry H1047R): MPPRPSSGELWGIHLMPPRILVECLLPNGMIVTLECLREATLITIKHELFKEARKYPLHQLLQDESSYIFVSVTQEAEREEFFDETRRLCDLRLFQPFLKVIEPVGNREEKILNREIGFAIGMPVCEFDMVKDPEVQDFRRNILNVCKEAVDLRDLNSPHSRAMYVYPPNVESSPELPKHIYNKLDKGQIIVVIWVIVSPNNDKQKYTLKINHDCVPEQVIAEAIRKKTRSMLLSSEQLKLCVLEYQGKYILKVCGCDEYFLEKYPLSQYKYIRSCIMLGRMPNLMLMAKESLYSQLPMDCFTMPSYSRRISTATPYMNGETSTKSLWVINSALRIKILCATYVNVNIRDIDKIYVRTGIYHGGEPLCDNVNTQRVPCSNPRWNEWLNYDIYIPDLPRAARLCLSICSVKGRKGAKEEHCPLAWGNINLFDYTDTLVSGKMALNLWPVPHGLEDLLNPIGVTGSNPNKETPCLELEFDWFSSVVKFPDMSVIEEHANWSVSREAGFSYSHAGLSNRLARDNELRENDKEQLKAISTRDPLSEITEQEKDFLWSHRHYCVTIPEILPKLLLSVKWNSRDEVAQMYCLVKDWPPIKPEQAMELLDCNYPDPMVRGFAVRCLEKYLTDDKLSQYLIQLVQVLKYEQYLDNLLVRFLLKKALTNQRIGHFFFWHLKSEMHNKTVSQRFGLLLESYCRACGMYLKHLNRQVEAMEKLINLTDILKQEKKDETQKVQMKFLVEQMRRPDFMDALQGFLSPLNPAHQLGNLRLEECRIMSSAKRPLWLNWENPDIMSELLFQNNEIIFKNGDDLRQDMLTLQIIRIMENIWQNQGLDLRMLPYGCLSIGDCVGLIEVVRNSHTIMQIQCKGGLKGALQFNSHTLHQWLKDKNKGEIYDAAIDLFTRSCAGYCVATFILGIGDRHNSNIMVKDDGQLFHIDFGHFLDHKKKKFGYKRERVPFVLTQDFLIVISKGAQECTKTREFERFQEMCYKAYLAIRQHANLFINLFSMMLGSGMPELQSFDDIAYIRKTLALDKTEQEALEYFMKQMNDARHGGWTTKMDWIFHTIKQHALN
Chain of PI3Kα H1047R (P27986 whole entry partner): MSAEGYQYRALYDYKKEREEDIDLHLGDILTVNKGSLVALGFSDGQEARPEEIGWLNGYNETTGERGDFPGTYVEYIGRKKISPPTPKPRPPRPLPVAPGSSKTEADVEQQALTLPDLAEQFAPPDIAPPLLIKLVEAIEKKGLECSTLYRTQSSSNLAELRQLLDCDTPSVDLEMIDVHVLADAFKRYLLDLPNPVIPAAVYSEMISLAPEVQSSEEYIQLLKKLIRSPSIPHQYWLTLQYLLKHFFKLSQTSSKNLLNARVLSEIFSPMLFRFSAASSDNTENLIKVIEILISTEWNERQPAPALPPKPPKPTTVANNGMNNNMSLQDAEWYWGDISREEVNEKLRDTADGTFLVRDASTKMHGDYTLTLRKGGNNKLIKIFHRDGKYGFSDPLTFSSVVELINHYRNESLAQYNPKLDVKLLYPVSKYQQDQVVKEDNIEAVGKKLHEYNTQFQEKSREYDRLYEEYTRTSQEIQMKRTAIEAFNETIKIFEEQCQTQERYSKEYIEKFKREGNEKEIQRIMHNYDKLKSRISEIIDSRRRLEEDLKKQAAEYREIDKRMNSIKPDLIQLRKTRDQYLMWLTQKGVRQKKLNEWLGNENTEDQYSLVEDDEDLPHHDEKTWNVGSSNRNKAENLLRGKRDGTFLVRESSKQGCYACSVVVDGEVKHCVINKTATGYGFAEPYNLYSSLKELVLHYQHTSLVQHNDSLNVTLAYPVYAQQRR

pIC50 | Structure (SMILES)
> 6.70 | CC(C)C(NC(=O)Nc1cnc(N)nc1)c1cc2ccc(F)cc2n1C (stereo not shown) [Compound 2, 1-(2-aminopyrimidin-5-yl)-3-[1-(6-fluoro-1-methylindol-2-yl)-2-methylpropyl]urea]
> 6.70 | Cn1c([C@@H](NC(=O)Nc2cnc(N)nc2)C(F)(F)F)cc2c(F)cc(F)cc21 (racemic) [Compound 9]
> 6.70 | Cn1c(C(NC(=O)Nc2cnc(N)nc2)C(F)(F)F)cc2ccc(F)cc21 (stereo not shown) [Compound 1, 1-(2-aminopyrimidin-5-yl)-3-[2,2,2-trifluoro-1-(6-fluoro-1-methylindol-2-yl)ethyl]urea]

The next lines start with the molecule.

Structure (SMILES) | pIC50
Cc1c([C@@H](NC(=O)Nc2cnc(N)nc2)C(F)(F)F)n(C)c2c(F)cc(F)cc12 [Compound 3, 1-(2-aminopyrimidin-5-yl)-3-[(1R)-1-(5,7-difluoro-1,3-dimethylindol-2-yl)-2,2,2-trifluoroethyl]ureas] | 6.30 to 6.70
Cc1c([C@@H](NC(=O)Nc2cnc(N)nc2)C(F)(F)F)nc2ccc(F)cn12 (racemic) [Compound 11] | ≤ 6.30
Cn1c([C@@H](NC(=O)Nc2cnc(N)nc2)C(F)(F)F)nc2c(F)cc(F)cc21 (racemic) [Compound 7] | > 6.70
Cc1c([C@@H](NC(=O)Nc2cnc(N)nc2)C(F)(F)F)nn2ccccc12 (racemic) [Compound 5] | ≤ 6.30
